Measured values as given in publication PMC8293625, “HLA class-I-peptide stability mediates CD8^+ T cell immunodominance hierarchies and facilitates HLA-associated immune control of HIV” (Cell Reports, 2021).
Like-named read-outs stand apart in the source and are kept apart here.

Assays:
[1] = target: HLA-B*8101 (Homo sapiens, UniProt P01889, A269T/D138N/E176V/R180L/T167S/W171L); experiment: Cell-based HLA class I-peptide concentration-based stability assay (TAP-deficient mono-allelic 721.221 cells); conditions: relative anti-HLA MFI; for Relative HLA MFI (10 uM): section B*81, peptide 10 uM; for Relative HLA MFI (100 uM): section B*81, peptide 100 uM
Sequence of HLA-B*8101 (P01889 25-362 D138N/T167S/W171L/E176V/R180L/A269T limits assumed): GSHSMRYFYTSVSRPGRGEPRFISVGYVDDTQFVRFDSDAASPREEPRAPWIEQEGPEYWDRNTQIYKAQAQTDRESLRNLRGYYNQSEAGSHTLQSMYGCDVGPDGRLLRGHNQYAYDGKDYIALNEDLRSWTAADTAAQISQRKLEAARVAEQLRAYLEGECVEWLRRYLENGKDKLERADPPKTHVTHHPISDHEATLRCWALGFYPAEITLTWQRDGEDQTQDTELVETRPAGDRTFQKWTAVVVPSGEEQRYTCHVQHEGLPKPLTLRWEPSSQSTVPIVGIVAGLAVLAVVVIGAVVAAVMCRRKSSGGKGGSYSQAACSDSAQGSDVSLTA

[2] = target: Soluble HLA-A*0301 monomer (heavy chain and β2-microglobulin); experiment: differential scanning fluorimetry (thermal denaturation)
[3] = target: HLA-A*0301 on TAP-deficient mono-allelic 721.221 cells (human | human (endogenous in 721.221)); experiment: flow cytometry on cells
[4] = target: T1, HLA-B*5701 (Homo sapiens, UniProt P01889, D201E/D98Y/E176V/E187L/E204Q/E69M/E70A/G107R/I90N/K202T/L105A/L119I/N104I/N87E/Q89R/Q94S/R106L/R155S/R180L/R86G/S101N/S121V/S35A/S48A/T118I/V36M/Y140S/Y91M); experiment: Thermal denaturation (differential scanning fluorimetry) of soluble HLA class I-peptide monomers; format: binding; conditions: DSF, 2 μM pMHC, SYPRO orange; representative, performed twice as technical triplicates (Fig S4B)
Description: (§1) To confirm these observations and further validate the cell-based stability assay, we used an orthogonal approach to evaluate the relationship between HLA class-I-peptide stability and ID by assessing thermal denaturation of soluble HLA class-I-peptide complexes ([Hellman et al., 2016]). In this assay, soluble HLA class-I monomers with bound peptide are incubated in the presence of an environmentally sensitive fluorescent molecule whose fluorescence is enhanced when bound to exposed hydrophobic surfaces during protein unfolding. As a result, the thermal stability (Tm, defined as the temperature at which 50% of the protein is unfolded) of an HLA class-I-peptide complex can be determined by fluorometric measurements during incremental temperature increases, which serve as a proxy for the stabilizing capacity of a bound epitope ([Hellman et al., 2016]).
(§2) This relative difference in Tm between ID and SubD epitopes was also observed for HLA-A^∗02 and HLA-B^∗57 (Figure S4) and collectively was statistically significant (Figure 3C).
(§3) Expression, refold and purification of the soluble constructs of the pMHCs were performed as previously described ([Pierce et al., 2014]). Briefly, the HLA-A^∗02, HLA-A^∗03 and HLA-B^∗57 heavy chains, and β2-microglobulin were expressed in Escherichia coli and purified as inclusion bodies (IBs). The IBs were solubilized in 8M Urea. Target peptides were provided by the MGH Peptide Core. […]
(§4) Differential scanning fluorimetry was performed using a Bio-RAD CFX96 real time PCR system as previously described. Briefly, the excitation and emission wavelengths were set to 587 and 607 nm respectively, and the fluorescence intensity was measured after every 1°C rise in temperature starting from 20°C and going up to 95°C. […] Apparent Tm values were calculated by identifying the point at which the melting transition was 50% complete.

[5] = target: T1, HLA-B*5701; experiment: Cell-based HLA class I-peptide concentration-based stability assay (TAP-deficient mono-allelic 721.221 cells); conditions: for Relative HLA MFI (10 uM) / Relative HLA MFI (100 uM): section B*57, TAP-deficient mono-allelic 721.221 cells, relative anti-HLA MFI; for Relative HLA MFI (10 uM): peptide 10 uM; for Relative HLA MFI (100 uM): peptide 100 uM; for anti-HLA MFI (surface HLA-B*5701): representative (Fig S2B)
Description: (§5) Controls without peptide, but the corresponding concentration of DMSO, were performed in parallel.

[6] = tested on: HLA class-I alleles A*0101, A*0201, A*0301, A*2402, B*0702, B*0801, B*1402, B*1501, B*2705, B*3501, B*3901, B*4001, B*4402, B*5201, B*5701, B*5801, B*8101 …; format: cell-based, human; conditions: relative anti-HLA MFI; for Relative HLA MFI (10 uM): peptide 10 uM; for Relative HLA MFI (100 uM): peptide 100 uM
[7] = target: T2, HLA-A*0301 (Homo sapiens, UniProt P04439); experiment: Cell-based HLA class I-peptide concentration-based stability assay (TAP-deficient mono-allelic 721.221 cells); conditions: for Relative HLA MFI (10 uM) / Relative HLA MFI (100 uM): HLA A*03 mono-allelic TAP-deficient 721.221 cells, relative anti-HLA MFI; for Relative HLA MFI (10 uM): peptide 10 uM; for Relative HLA MFI (100 uM): peptide 100 uM
Description: as §5

[8] = target: T2, HLA-A*0301; experiment: Thermal denaturation (differential scanning fluorimetry) of soluble HLA class I-peptide monomers; format: binding; conditions: DSF, 2 μM pMHC, 10mM HEPES pH 7.4, 150 mM NaCl, SYPRO orange, 20–95°C in 1°C steps; representative (Fig 3B)
Description: as §1, §2, §3, §4

[9] = section B*58, TAP-deficient mono-allelic 721.221 cells
[10] = HLA B*27 mono-allelic TAP-deficient 721.221 cells

FPRIWLHGL [FL9]
Relative HLA MFI (10 uM) [1]: 0.69
Relative HLA MFI (100 uM) [1]: 1

HIV A*03-restricted RK9 epitope ([…], Gag p17 20-28) (peptide)
Tm of the HLA-peptide complex [2]: 53 °C
percent stable HLA-peptide complexes on the surface after 4 h at 37°C with BFA [3]: 40%

HTQGYFPDW [HW9]
thermal stability (Tm) of HLA-B*5701-peptide complex [4]: 57 °C
Relative HLA MFI (10 uM) [5]: 0.3192
Relative HLA MFI (100 uM) [5]: 0.6623
Relative HLA MFI (10 uM) [6, 9]: 0.6285
Relative HLA MFI (100 uM) [6, 9]: 1

KAFSPEVIPMF [KF11]
thermal stability (Tm) of HLA-B*5701-peptide complex [4]: 57 °C
anti-HLA MFI (surface HLA-B*5701) ([5]; absence of β2m): 426
anti-HLA MFI (surface HLA-B*5701) ([5]; presence of β2m (3 µg/mL)): 565
Relative HLA MFI (10 uM) [5]: 0.2215
Relative HLA MFI (100 uM) [5]: 0.5689

LRPMTYKAA [LA9]
Relative HLA MFI (10 uM) [6, 10]: 0.09012
Relative HLA MFI (100 uM) [6, 10]: 0.09773
Relative HLA MFI (10 uM) [1]: 0.0372
Relative HLA MFI (100 uM) [1]: 0.09141

RLAFHHVAR [RR9]
Relative HLA MFI (10 uM) [7]: 0.003513
Relative HLA MFI (100 uM) [7]: 0.03204
anti-HLA MFI (HLA-A*0301 surface stabilization) ([7]; HLA-A*0301 + sgRNA TAP cells (Fig 3A), peptide concentration not given): 123
thermal stability (Tm) of HLA-A*0301-peptide complex [8]: 44 °C

RLRDLLLIVTR [RR11]
Relative HLA MFI (10 uM) [7]: 0
Relative HLA MFI (100 uM) [7]: 0.02843

TPVNIIGRNML [TL11]
Relative HLA MFI (10 uM) [1]: 0.7114
Relative HLA MFI (100 uM) [1]: 0.9995
